How the values were obtained:
[1] = test system: 60 human clinical cancer cell lines (NCI60); test: NCI60 assay, mean-graph midpoint; assay type: cell-based; conditions: NCI60, 48 h
Procedure: (§1) CYB-L10 was tested using the protocols by the NCI, which has been described previously. […] The overall antiproliferative potential is quantified as a mean-graph midpoint (MGM). […] It was selected and submitted to National Cancer Institute (NCI, USA) for a developmental therapeutics assay against the 60 clinical tumor cell lines representing nine tissue types (NCI60)[23–25]. The tumor cells were incubated with CYB-L10 for 48 h and stained with sulphorhodamine B dye. Cell growth inhibition (GI50) was calculated relative to the control without compound.

[2] = test system: ACHN; test: NCI60 assay; assay type: cell-based; conditions: Homo sapiens, Renal cancer, 48 h
Procedure: as §1

[3] = test system: BT-549; test: NCI60 assay; assay type: cell-based; conditions: Homo sapiens; Breast cancer, BT-549, 48 h
Procedure: as §1

[4] = test system: EKVX; test: NCI60 assay; assay type: cell-based; conditions: Homo sapiens, Non-small cell lung cancer, 48 h
Procedure: as §1

[5] = test system: HCT116; test: NCI60 assay; assay type: cell-based; conditions: Homo sapiens, HCT-116, Colon cancer, HCT116, 48 h
Procedure: as §1

[6] = test system: HT29; test: NCI60 assay; assay type: cell-based; conditions: Homo sapiens, HT-29; Colon cancer, HT29, 48 h
Procedure: as §1

[7] = test system: IGROV1; test: NCI60 assay; assay type: cell-based; conditions: Homo sapiens, IGROV-1; Ovarian cancer, IGROV1, 48 h
Procedure: as §1

[8] = test system: KM12; test: NCI60 assay; assay type: cell-based; conditions: Homo sapiens; Colon cancer, KM12, 48 h
Procedure: as §1

[9] = test system: MALME-3M; test: NCI60 assay; assay type: cell-based; conditions: Homo sapiens, Melanoma, 48 h
Procedure: as §1

[10] = test system: NCI-H322M; test: NCI60 assay; assay type: cell-based; conditions: Homo sapiens, Non-small cell lung cancer, 48 h
Procedure: as §1

[11] = test system: OVCAR-5; test: NCI60 assay; assay type: cell-based; conditions: Homo sapiens; Ovarian cancer, OVCAR-5, 48 h
Procedure: as §1

[12] = test system: SF-268; test: NCI60 assay; assay type: cell-based; conditions: Homo sapiens; CNS cancer, SF-268, 48 h
Procedure: as §1

[13] = test system: SN 12C; test: NCI60 assay; assay type: cell-based; conditions: Homo sapiens, SN12C, Renal cancer, 48 h
Procedure: as §1

[14] = test system: SNB-75; test: NCI60 assay; assay type: cell-based; conditions: Homo sapiens; CNS cancer, SNB-75, 48 h
Procedure: as §1

[15] = test system: SW-620; test: NCI60 assay; assay type: cell-based; conditions: Homo sapiens; Colon cancer, SW-620, 48 h
Procedure: as §1

[16] = test system: T-47D; test: NCI60 assay; assay type: cell-based; conditions: Homo sapiens, T47D, Breast cancer, 48 h
Procedure: as §1

[17] = test system: UACC-62; test: NCI60 assay; assay type: cell-based; conditions: Homo sapiens; Melanoma, UACC-62, 48 h
Procedure: as §1

[18] = test system: UO-31; test: NCI60 assay; assay type: cell-based; conditions: Homo sapiens; Renal cancer, UO-31, 48 h
Procedure: as §1

[19] = test system: HCT116-siTop1; test: MTT assay; assay type: cell-based; conditions: Homo sapiens; Resistant subline HCT116-siTop1, MTT, 72 h
[20] = test system: DU-145; test: MTT assay; assay type: cell-based; conditions: Homo sapiens; Parental cell line DU-145, MTT, 72 h
[21] = test system: HepG2; test: MTT assay; assay type: cell-based; conditions: Homo sapiens; Parental cell line HepG2, MTT, 72 h
[22] = Pharmacokinetic study in rat; assay type: in vivo; conditions: male, Sprague-Dawley, plasma, SD rats
Procedure: Blood samples (200 µL) were collected into heparinized tubes via the jugular vein at the following times: 0.083, 0.25, 0.5, 1, 2, 5, 7, and 24 h after dosing. Plasma samples (100 µL) were obtained after centrifugation for 10 min at 3000 rpm and stored at −20 °C until used for analysis. The plasma was detected through LC-MS/MS.
The in vivo pharmacokinetic (PK) study of CYB-L10 was conducted in SD rats. The SD rats were divided into two groups (n = 2) and treated by i.v. injection at 1 mg/kg dose and i.g. at 5 mg/kg dose, respectively. The plasma samples were collected up to 24 h postdose and measured for the concentration of CYB-L10. By i.v. administration, the AUC0→∞ was 241 ± 40 h·ng/mL, and T1/2 was 18.4 ± 5.12 h.

[23] = test system: HCT116 xenograft; test: In vivo antitumor activity, HCT116 xenograft; set-up: species or system nude mice; conditions: for tumor weight inhibition (TWI): HCT116 xenograft nude mice
Procedure: Athymic nude mice bearing the nu/nu gene were obtained from Laboratory Animal Center of Sun Yat-sen University and maintained in pathogen-free conditions to establish the model of xenografts of HCT116. All animals were used under the Policy on the Care and Use of Laboratory Animal of Sun Yat-sen University. Male nude mice 4–5 weeks old weighing 12–15 g were used. HCT116 tumor preinduced in the mice by subcutaneously injecting of HCT116 cells (100 µL, 1 × 10^7 cells) was implanted. When the implanted tumors had reached a volume of about 80 mm^3, the mice were randomly divided into three groups (n = 5) and administered by i.p. injection at a frequency of once every 3 days. The testing groups were treated with CYB-L10 at 20 mg/kg and 6.7 mg/kg dose, respectively. The control group was treated with an equivalent volume of saline. Tumor volumes (V) were monitored by caliper measurement of the length and width, and calculated using the formula: V = (larger diameter) × (smaller diameter)^2/2, and growth curves were plotted using average tumor volume within each experimental group at the set time points. At the end of treatment, the animals were sacrificed, and the tumors were removed and weighed. The tumor weight inhibition (TWI) was calculated according to the formula: TWI = (1 − Mean tumor weight of the experimental group/Mean tumor weight of the control group) × 100%. Statistical comparisons were conducted using a one-way analysis of variance, followed by Tukey’s test.
A human colon cancer HCT116 xenograft nude mice model was established to evaluate the antitumor efficiency of CYB-L10 in vivo. Mice were randomly divided into three groups and administered i.p. injection at a frequency of once every 3 days. Two groups were treated with CYB-L10 at 20 mg/kg and 6.7 mg/kg dose, respectively. The negative control group was treated with an equivalent volume of saline.

O=C1c2cccnc2C(=O)c2c1c(C(=O)OCCN1CCOCC1)c1ccccn21 [CYB-L10]
MGM (mean graph midpoint for growth inhibition of all human cancer cell lines) [1]: 0.050 µM | GI50 [2]: < 0.01 µM | GI50 [3]: 0.0558 µM | GI50 [4]: 1.36 µM | GI50 [5]: 0.0417 µM | GI50 [6]: 0.58 µM | GI50 [7]: 0.0462 µM | GI50 [8]: 0.168 µM | GI50 [9]: 0.045 µM | GI50 [10]: 0.0977 µM | GI50 [11]: 0.648 µM | GI50 [12]: 0.0185 µM | GI50 [13]: < 0.01 µM | GI50 [14]: < 0.01 µM | GI50 [15]: < 0.01 µM | GI50 [16]: 0.961 µM | GI50 [17]: < 0.01 µM | GI50 [18]: 0.013 µM | GI50 [19]: 0.19 ± 0.092 µM | GI50 [20]: 0.016 ± 0.01 µM | GI50 [21]: 0.065 ± 0.03 µM | AUC(0-inf) ([22]; iv, i.v. 1 mg/kg): 241 ± 40 ng·h/mL | half-life ([22]; iv, i.v. 1 mg/kg): 18.4 ± 5.12 h | bioavailability ([22]; oral, i.g. 5 mg/kg vs i.v. 1 mg/kg, read-out: F (bioavailability)): 6.3% | AUC(0-inf) ([22]; po, i.g. 5 mg/kg): 76 ± 16.5 ng·h/mL | Cmax ([22]; po, i.g. 5 mg/kg): 24.7 ± 6.59 ng/mL | Tmax ([22]; po, i.g. 5 mg/kg): 0.46 ± 0.1 h | half-life ([22]; po, i.g. 5 mg/kg): 18.4 ± 7.77 h | tumor weight inhibition (TWI) ([23]; 6.7 mg/kg i.p. once every 3 days): 27.6% | tumor weight inhibition (TWI) ([23]; 20 mg/kg i.p. once every 3 days, p < 0.05): 38.3% | body weight of the mice ([23]; 20 and 6.7 mg/kg i.p., vs negative control): no obvious loss | tumor volume ([23]; 20 and 6.7 mg/kg i.p., vs negative control, dose-dependent): obviously reduced the tumor volume
